Results on 11 compounds are retold here after patent US20130079345A1, “[…] ACTIVE DISUBSTITUTED TRIAZINE DERIVATIVES” (BAYER INTELLECTUAL PROPERTY GMBH, priority 2010, published 2013).

Structures can show the parent of a compound that is named as a salt.

As usually defined, the IC50 is the concentration that gives 50% inhibition. High values mean a need for much substance, low ones inhibition by little substance.

For one experiment, the system named is HeLa cells. Description: Cell viability, HeLa cells. It is filed as cell-based. To be noted: Homo sapiens. How it is done: (§1) HeLa- or MDAMB468-Cells or MATU ADR, H460, DU145, CACO-2 or B16F10 cells were maintained in RPMI 1640 or McCoy's 5A cell culture medium+glutamine (PAN Biotech GmbH, Aidenbach, Germany; order no. P04-22100; P04-05500) supplemented with 10% fetal calf serum “Gold” (PAA Laboratories GmbH, Pasching, Austria; order no. A15-151) and grown at 37° C., 5% CO2. For the cell viability assay, cells were seeded with a density of 400 (Hela cells, DSMZ Braunschweig order no. ACC57) or 800 (MDAMB468 cells, ATCC order no. HTB-132) per well in 25 μL in 384-well plates (Greiner Bio-One, Frickenhausen, Germany; order no. 781080). After overnight incubation at 37° C./5% CO2, 25 nL or 75 nL compound were added to each sample well by using BIOMEK FXP Laboratory Automation Workstation (Beckman Coulter, USA). Wells with cells and 0.1% or 0.3% DMSO in culture medium were used as positive controls, wells with cells and 10 μM staurosporine in culture medium were used as negative controls. The cells were incubated with the compounds for 72 h at 37° C./5% CO2. For measurement of cell viability […] Cell Titer Glo reagent (Promega, Madison, USA; order no. G7573), 1:2 diluted with cell culture medium, was added to each well. The 384well-plates were placed for 2 min on an orbital microplate shaker and incubated for further 10 min at room temperature to stabilize the luminescence signal. Luminescence was measured by Envision Plate Reader (Perkin Elmer, USA). EC50 values were calculated with the software Excel Fit (IDBS, Guildford, UK) from 3-fold dilution series comprising at least 8 concentrations in duplicates.
(§2) Cultivated tumour cells (NCl-H460, human non-small cell lung carcinoma cells, ATCC HTB-177; DU 145, hormone-independent human prostate carcinoma cells, ATCC HTB-81; HeLa-MaTu, human cervical carcinoma cells, EPO-GmbH, Berlin; HeLa-MaTu-ADR, multidrug-resistant human cervical carcinoma cells, EPO-GmbH, Berlin; HeLa human cervical tumour cells, ATCC CCL-2; Caco-2 human colorectal carcinoma, ATCC HTB-37; B16F10 mouse melanoma cells, ATCC CRL-6475) were plated at a density of 5,000 cells/well (DU145, HeLa-MaTu-ADR), 3,000 cells/well (NCl-H460, HeLa-MaTu, HeLa), 1,500 cells/well (Caco-2), or 1,000 cells/well (B16F10) in a 96-well multititer plate in 200 μL of their respective growth medium supplemented with 10% fetal calf serum. After 24 hours, the cells of one plate (zero-point plate) were stained with crystal violet (see below), while the medium of the other plates was replaced by fresh culture medium (200 μl), to which the test substances were added in various concentrations (0 μM as well as in the range of 0.001 to 10 μM; the final concentration of the solvent dimethyl sulfoxide was 0.5%). The cells were incubated in the presence of test substances for 4 days. Cell proliferation was determined by staining the cells with crystal violet: The cells were fixed by adding 20 μl/measuring point of an 11% glutaric aldehyde solution at room temperature for 15 minutes. After three washing cycles of the fixed cells with water, the plates were dried at room temperature. The cells were stained by adding 100 μl/measuring point of a 0.1% crystal violet solution (pH 3.0). After three washing cycles of the stained cells with water, the plates were dried at room temperature. The dye was dissolved by adding 100 μl/measuring point of a 10% acetic acid solution. The extinction was determined by photometry at a wavelength of 595 nm. The change of cell number, in percent, was calculated by normalization of the measured values to the extinction values of the zero-point plate (equivalent to 0%) and the extinction of the untreated (0 μm) cells (equivalent to 100%). The IC50 values were determined by means of a 4 parameter fit using the company's own software.

The subject of the next experiment is CACO-2 cells. Nature of the experiment: Cell viability, CACO-2 cells. It is filed as cell-based, human. The procedure:
as §1
as §2, with “The cells were stained by adding 100 μl/measuring point of a 0.1% crystal violet solution (pH 3.0). After three washing cycles of the stained cells with water, the plates were dried at room temperature. The dye was dissolved by adding 100 μl/measuring point of a 10% acetic acid solution.” left out

The test system of another experiment is H460 cells. Nature of the experiment: Cell viability, H460 cells. It counts as cell-based, human. How it is done:
as §1
as §2, with “The cells were stained by adding 100 μl/measuring point of a 0.1% crystal violet solution (pH 3.0). After three washing cycles of the stained cells with water, the plates were dried at room temperature. The dye was dissolved by adding 100 μl/measuring point of a 10% acetic acid solution.” left out

In a further experiment the test system is B16F10 cells. Description: Cell viability, B16F10 cells. It is filed as cell-based, mouse. How it is done:
as §1
as §2, with “The cells were stained by adding 100 μl/measuring point of a 0.1% crystal violet solution (pH 3.0). After three washing cycles of the stained cells with water, the plates were dried at room temperature. The dye was dissolved by adding 100 μl/measuring point of a 10% acetic acid solution.” left out

The next experiment has as its system MaTu/ADR cells. Description: Cell viability, MaTu/ADR cells. It counts as cell-based. To be noted: Homo sapiens. The procedure: HeLa- or MDAMB468-Cells or MATU ADR, H460, DU145, CACO-2 or B16F10 cells were maintained in RPMI 1640 or McCoy's 5A cell culture medium+glutamine (PAN Biotech GmbH, Aidenbach, Germany; order no. P04-22100; P04-05500) supplemented with 10% fetal calf serum “Gold” (PAA Laboratories GmbH, Pasching, Austria; order no. A15-151) and grown at 37° C., 5% CO2. For the cell viability assay, cells were seeded with a density of 400 (Hela cells, DSMZ Braunschweig order no. ACC57) or 800 (MDAMB468 cells, ATCC order no. HTB-132) per well in 25 μL in 384-well plates (Greiner Bio-One, Frickenhausen, Germany; order no. 781080). After overnight incubation at 37° C./5% CO2, 25 nL or 75 nL compound were added to each sample well by using BIOMEK FXP Laboratory Automation Workstation (Beckman Coulter, USA). Wells with cells and 0.1% or 0.3% DMSO in culture medium were used as positive controls, wells with cells and 10 μM staurosporine in culture medium were used as negative controls. The cells were incubated with the compounds for 72 h at 37° C./5% CO2. For measurement of cell viability […] Cell Titer Glo reagent (Promega, Madison, USA; order no. G7573), 1:2 diluted with cell culture medium, was added to each well. The 384well-plates were placed for 2 min on an orbital microplate shaker and incubated for further 10 min at room temperature to stabilize the luminescence signal. Luminescence was measured by Envision Plate Reader (Perkin Elmer, USA). […]
Cultivated tumour cells (NCl-H460, human non-small cell lung carcinoma cells, ATCC HTB-177; DU 145, hormone-independent human prostate carcinoma cells, ATCC HTB-81; HeLa-MaTu, human cervical carcinoma cells, EPO-GmbH, Berlin; HeLa-MaTu-ADR, multidrug-resistant human cervical carcinoma cells, EPO-GmbH, Berlin; HeLa human cervical tumour cells, ATCC CCL-2; Caco-2 human colorectal carcinoma, ATCC HTB-37; B16F10 mouse melanoma cells, ATCC CRL-6475) were plated at a density of 5,000 cells/well (DU145, HeLa-MaTu-ADR), 3,000 cells/well (NCl-H460, HeLa-MaTu, HeLa), 1,500 cells/well (Caco-2), or 1,000 cells/well (B16F10) in a 96-well multititer plate in 200 μL of their respective growth medium supplemented with 10% fetal calf serum. […] Cell proliferation was determined by staining the cells with crystal violet: The cells were fixed by adding 20 μl/measuring point of an 11% glutaric aldehyde solution at room temperature for 15 minutes. […] The extinction was determined by photometry at a wavelength of 595 nm. The change of cell number, in percent, was calculated by normalization of the measured values to the extinction values of the zero-point plate (equivalent to 0%) and the extinction of the untreated (0 μm) cells (equivalent to 100%). The IC50 values were determined by means of a 4 parameter fit using the company's own software.

In another experiment the test system is DU145 cells. Nature of the experiment: Cell viability, DU145 cells. It is filed as cell-based, human. The procedure:
as §1
as §2, with “The cells were stained by adding 100 μl/measuring point of a 0.1% crystal violet solution (pH 3.0). After three washing cycles of the stained cells with water, the plates were dried at room temperature. The dye was dissolved by adding 100 μl/measuring point of a 10% acetic acid solution.” left out

In the case of `COc1cc(F)c(F)cc1-c1ncnc(Nc2cccc(CS(N)(=O)=O)c2)n1` [Compound U7, 1-(3-{[4-(4,5-difluoro-2-methoxyphenyl)-1,3,5-triazin-2-yl]amino}phenyl)methanesulfonamide], it took 1200 nM to reach half-maximal inhibition in the experiment on HeLa cells (IC50).

With `CNS(=O)(=O)Cc1cccc(Nc2cc(-c3ccccc3OC)ncn2)c1` [Ref2, C-{3-[6-(2-Methoxy-phenyl)-pyrimidin-4-ylamino]-phenyl}-N-methyl methanesulfonamide, reference compound], the IC50 in the experiment on HeLa cells came out at 4600 nM.

With `NS(=O)(=O)Cc1cccc(Nc2ncnc(-c3ccccc3OCc3ccccc3)n2)c1` [B13′, 3-[(4-(2-Benzyloxyphenyl)-1,3,5-triazin-2-yl)amino]benzenemethanesulfonamide trifluoroacetic acid salt], the IC50 in the experiment on CACO-2 cells (Homo sapiens, Caco-2) was found to be 370 nM; in the experiment with H460 cells (Homo sapiens, NCI-H460), 320 nM; with B16F10 cells (Mus musculus, B16-F10), 320 nM; in the experiment on HeLa cells, 310 nM; with MaTu/ADR cells, 290 nM; in the experiment with DU145 cells (Homo sapiens, DU-145) it was 330 nM.

The compound `COc1cc(F)ccc1-c1ncnc(Nc2ccc(S(C)(=O)=O)nc2)n1` [Compound U8, 4-(4-fluoro-2-methoxyphenyl)-N-[6-(methylsulfonyl)pyridin-3-yl]-1,3,5-triazin-2-amine] displayed an IC50 in the experiment with HeLa cells of 4200 nM.

As to `COc1ccccc1-c1cc(Nc2cccc(CS(=O)(=O)N(C)C)c2)ncn1` [Ref4, C-{3-[6-(2-Methoxy-phenyl)-pyrimidin-4-ylamino]-phenyl}-N,N-dimethylmethanesulfonamide, reference compound], in the experiment with HeLa cells, the IC50 is 6100 nM.

Take `COc1cc(F)ccc1-c1ncnc(Nc2cccc(CS(N)(=O)=O)c2)n1` [B2′, 1-(3-{[4-(4-fluoro-2-methoxyphenyl)-1,3,5-triazin-2-yl]amino}phenyl)methanesulfonamide hydrochloride]: the IC50 in the experiment on CACO-2 cells (hydrochloride) came to 1500 nM; in the experiment with H460 cells (hydrochloride), 1500 nM; with B16F10 cells (hydrochloride), 1100 nM; with DU145 cells (hydrochloride) it was 1000 nM.

`N#Cc1cc(F)ccc1-c1ncnc(Nc2cccc(CS(N)(=O)=O)c2)n1` [Compound U3, 1-(3-{[4-(2-cyano-4-fluorophenyl)-1,3,5-triazin-2-yl]amino}phenyl)methanesulfonamide] had an IC50 with HeLa cells of 10000 nM.

As for `COc1cc(F)ccc1-c1ncnc(Nc2cccc(CS(N)(=O)=O)c2)n1` [Compound B2, 3-[(4-(4-Fluoro-2-methoxyphenyl)-1,3,5-triazin-2-yl)amino]benzenemethanesulfonamide], the IC50 in the experiment with CACO-2 cells (Homo sapiens, Caco-2) turned out to be 1600 nM; in the experiment with H460 cells (Homo sapiens, NCI-H460), 1300 nM; in the experiment on B16F10 cells (Mus musculus, B16-F10), 1600 nM; with HeLa cells, 1000 nM; in the experiment with MaTu/ADR cells it was 1000 nM; in the experiment with DU145 cells (Homo sapiens, DU-145) it was 1500 nM.

Turning to `COc1ccccc1-c1ncnc(Nc2cccc(CS(N)(=O)=O)c2)n1` [B1′, 3-[(4-(2-Methoxyphenyl)-1,3,5-triazin-2-yl)amino]benzenemethanesulfonamide trifluoroacetic acid salt], the IC50 turned out to be 4300 nM in the experiment on CACO-2 cells (Homo sapiens, Caco-2); 3500 nM with H460 cells (Homo sapiens, NCI-H460); 4400 nM in the experiment on B16F10 cells (Mus musculus, B16-F10); 3200 nM with HeLa cells; 3200 nM in the experiment on MaTu/ADR cells; 3800 nM in the experiment with DU145 cells (Homo sapiens, DU-145).

Compound `CC(C)Oc1cc(F)ccc1-c1ncnc(Nc2cccc(CS(N)(=O)=O)c2)n1` [Compound U2, 1-[3-({4-[4-fluoro-2-(propan-2-yloxy)phenyl]-1,3,5-triazin-2-yl}amino)phenyl]methanesulfonamide] showed an IC50 in the experiment with HeLa cells of 2700 nM. In other words, the single-digit micromolar range.

For the compound `COc1ccccc1-c1ncnc(Nc2cccc(S(N)(=O)=O)c2)n1` [C1′, 3-[(4-(2-Methoxyphenyl)-1,3,5-triazin-2-yl)amino]benzenesulfonamide trifluoroacetic acid salt], the IC50 in the experiment with CACO-2 cells (Homo sapiens, Caco-2) came out at 1100 nM; with H460 cells (Homo sapiens, NCI-H460), 1100 nM; with B16F10 cells (Mus musculus, B16-F10), 1000 nM; with HeLa cells, 1000 nM; with MaTu/ADR cells, 760 nM; with DU145 cells (Homo sapiens, DU-145), 1000 nM.
